System: patients with advanced solid tumors (SCLC, CRC, mCRPC, NUT carcinoma)
Assay: phase Ib expansion: DLTs, adverse events, exposure
[1] = phase Ib, NUT carcinoma total n = 42

Source text: The primary endpoint for the phase Ib expansion was the number of patients who experienced DLTs during the study treatment period.
For fatigue at baseline, there had to be an increase of two or more grades.

## CNc1nc(-c2nc3ccc(N4CCN(C)CC4)cc3n2Cc2ccccc2)cn2c(C)nnc12 [BI 894999]
[1]
  Vomiting, treatment-related AE, any grade: 0 n (%)
  Vomiting, treatment-related AE, grade ≥3: 0 n (%)
  Weight decrease, treatment-related AE, any grade: 0 n (%)
  Weight decrease, treatment-related AE, grade ≥3: 0 n (%)
Phase Ib, SCLC n = 12
  ALT increase, treatment-related AE, any grade: 1 (8.3) n (%)
  ALT increase, treatment-related AE, grade ≥3: 0 n (%)
  Anemia, treatment-related AE, any grade: 0 n (%)
  Anemia, treatment-related AE, grade ≥3: 0 n (%)
  Decreased appetite, treatment-related AE, any grade: 2 (16.7) n (%)
  Decreased appetite, treatment-related AE, grade ≥3: 1 (8.3) n (%)
  Decreased platelet count, treatment-related AE, any grade: 1 (8.3) n (%)
  Decreased platelet count, treatment-related AE, grade ≥3: 0 n (%)
  Diarrhea, treatment-related AE, any grade: 3 (25.0) n (%)
  Diarrhea, treatment-related AE, grade ≥3: 0 n (%)
  Dysgeusia, treatment-related AE, any grade: 3 (25.0) n (%)
  Dysgeusia, treatment-related AE, grade ≥3: 0 n (%)
  Epistaxis, treatment-related AE, any grade: 0 n (%)
  Epistaxis, treatment-related AE, grade ≥3: 0 n (%)
  Fatigue, treatment-related AE, any grade: 4 (33.3) n (%)
  Fatigue, treatment-related AE, grade ≥3: 1 (8.3) n (%)
  Nausea, treatment-related AE, any grade: 1 (8.3) n (%)
  Nausea, treatment-related AE, grade ≥3: 0 n (%)
  Number of patients with treatment-related AEs: 11 (91.7) n (%)
  Thrombocytopenia, treatment-related AE, any grade: 5 (41.7) n (%)
  Thrombocytopenia, treatment-related AE, grade ≥3: 3 (25.0) n (%)
  Vomiting, treatment-related AE, any grade: 2 (16.7) n (%)
  Vomiting, treatment-related AE, grade ≥3: 0 n (%)
  Weight decrease, treatment-related AE, any grade: 1 (8.3) n (%)
  Weight decrease, treatment-related AE, grade ≥3: 0 n (%)
Phase Ib, all 79 patients
  anemia, grade ≥3 treatment-related AE: 15.2%
  anemia, treatment-related AE: 22.8%
  decreased appetite, treatment-related AE: 15.2%
  decreased platelet count, grade ≥3 treatment-related AE: 11.4%
  decreased platelet count, treatment-related AE: 25.3%
  diarrhea, treatment-related AE: 29.1%
  dysgeusia, treatment-related AE: 19.0%
  fatigue, grade ≥3 treatment-related AE: 6.3%
  fatigue, treatment-related AE: 27.8%
  nausea, treatment-related AE: 12.7%
  thrombocytopenia, grade ≥3 treatment-related AE: 20.3%
  thrombocytopenia, treatment-related AE: 31.6%
  vomiting, treatment-related AE: 12.7%
Phase Ib, mCRPC n = 11
  ALT increase, treatment-related AE, any grade: 0 n (%)
  ALT increase, treatment-related AE, grade ≥3: 0 n (%)
  Anemia, treatment-related AE, any grade: 4 (36.4) n (%)
  Anemia, treatment-related AE, grade ≥3: 4 (36.4) n (%)
  Decreased appetite, treatment-related AE, any grade: 4 (36.4) n (%)
  Decreased appetite, treatment-related AE, grade ≥3: 1 (9.1) n (%)
  Decreased platelet count, treatment-related AE, any grade: 3 (27.3) n (%)
  Decreased platelet count, treatment-related AE, grade ≥3: 1 (9.1) n (%)
  Diarrhea, treatment-related AE, any grade: 6 (54.5) n (%)
  Diarrhea, treatment-related AE, grade ≥3: 0 n (%)
  Dysgeusia, treatment-related AE, any grade: 4 (36.4) n (%)
  Dysgeusia, treatment-related AE, grade ≥3: 0 n (%)
  Epistaxis, treatment-related AE, any grade: 2 (18.2) n (%)
  Epistaxis, treatment-related AE, grade ≥3: 0 n (%)
  Fatigue, treatment-related AE, any grade: 4 (36.4) n (%)
  Fatigue, treatment-related AE, grade ≥3: 0 n (%)
  Nausea, treatment-related AE, any grade: 4 (36.4) n (%)
  Nausea, treatment-related AE, grade ≥3: 1 (9.1) n (%)
  Number of patients with treatment-related AEs: 11 (100.0) n (%)
  Thrombocytopenia, treatment-related AE, any grade: 5 (45.5) n (%)
  Thrombocytopenia, treatment-related AE, grade ≥3: 4 (36.4) n (%)
  Vomiting, treatment-related AE, any grade: 5 (45.5) n (%)
  Vomiting, treatment-related AE, grade ≥3: 0 n (%)
  Weight decrease, treatment-related AE, any grade: 2 (18.2) n (%)
  Weight decrease, treatment-related AE, grade ≥3: 0 n (%)
Phase Ib, on treatment
  DLT grade 3 decreased appetite: 2.5%
  DLT grade 3 fatigue: 3.8%
  DLT grade 3 increased troponin T: 2.5%
  DLT grade 4 decreased platelet count: 5.1%
  DLT grade 4 thrombocytopenia: 10.1%
Phase Ib, schedule C 6.0/3.0 mg, on-treatment period
  total patients with DLTs: Phase Ib expansion: total patients with DLTs on BI 894999 (schedule C; 6.0/3.0 mg), n = 3
Phase Ib, COVID-19, pneumonia, sepsis, delirium, seizure, dyspnea, pulmonary hemorrhage, acute kidney injury
  AEs leading to death, each: 1.3%
Phase Ib, tumor hemorrhage, seizure, dyspnea, laryngeal inflammation, nausea, stomatitis, bladder dilation, urinary retention, increased ALT, increased AST, decreased platelet count, increased alkaline phosphatase
  other AEs leading to dose discontinuation, each: 1.3%
Solid tumors phase Ib n = 79
  AEs leading to death: 7 (8.9) n (%)
  AEs leading to discontinuation of trial drug: 11 (13.9) n (%)
  AEs leading to dose reduction: 13 (16.5) n (%)
  Any AE: 79 (100) n (%)
  DLT in on-treatment period: 17 (21.5) n (%)
  Treatment-related AEs: 66 (83.5) n (%)
  Treatment-related serious AEs: 17 (21.5) n (%)

From paper PMC12005229, “Final results from the phase Ia/Ib study of the novel bromodomain and extra-terminal domain inhibitor, BI 894999, in patients with advanced solid tumors or diffuse large B-cell lymphoma” (ESMO Open, 2025)
